US20050164259A1, “Sequences” (priority 2001, published 2005)

Experiments:
[1] = molecular target: T1, pyranosone dehydratase (PD) (Phanerodontia chrysosporium, UniProt P84193); assay: Conversion of AF or glucosone by pyranosone dehydratase, monitored at 226 nm; type: biochemical, Phanerochaete chrysosporium; conditions: for OD 226 nm using substance as substrate: 22° C., 5.5 hours
T1 construct: The cell-free extract of Phanerochaete crysosporium was brought up to 55% ammonium sulphate saturation; endogenous in cells; host or cells: Phanerochaete chrysosporium ATCC 32629 and ATCC 24725; Native enzyme purified from cell-free extract by ammonium sulphate fractionation, then the procedure of Gabriel et al. 1993
T1 sequence (P84193 8-900 limits assumed): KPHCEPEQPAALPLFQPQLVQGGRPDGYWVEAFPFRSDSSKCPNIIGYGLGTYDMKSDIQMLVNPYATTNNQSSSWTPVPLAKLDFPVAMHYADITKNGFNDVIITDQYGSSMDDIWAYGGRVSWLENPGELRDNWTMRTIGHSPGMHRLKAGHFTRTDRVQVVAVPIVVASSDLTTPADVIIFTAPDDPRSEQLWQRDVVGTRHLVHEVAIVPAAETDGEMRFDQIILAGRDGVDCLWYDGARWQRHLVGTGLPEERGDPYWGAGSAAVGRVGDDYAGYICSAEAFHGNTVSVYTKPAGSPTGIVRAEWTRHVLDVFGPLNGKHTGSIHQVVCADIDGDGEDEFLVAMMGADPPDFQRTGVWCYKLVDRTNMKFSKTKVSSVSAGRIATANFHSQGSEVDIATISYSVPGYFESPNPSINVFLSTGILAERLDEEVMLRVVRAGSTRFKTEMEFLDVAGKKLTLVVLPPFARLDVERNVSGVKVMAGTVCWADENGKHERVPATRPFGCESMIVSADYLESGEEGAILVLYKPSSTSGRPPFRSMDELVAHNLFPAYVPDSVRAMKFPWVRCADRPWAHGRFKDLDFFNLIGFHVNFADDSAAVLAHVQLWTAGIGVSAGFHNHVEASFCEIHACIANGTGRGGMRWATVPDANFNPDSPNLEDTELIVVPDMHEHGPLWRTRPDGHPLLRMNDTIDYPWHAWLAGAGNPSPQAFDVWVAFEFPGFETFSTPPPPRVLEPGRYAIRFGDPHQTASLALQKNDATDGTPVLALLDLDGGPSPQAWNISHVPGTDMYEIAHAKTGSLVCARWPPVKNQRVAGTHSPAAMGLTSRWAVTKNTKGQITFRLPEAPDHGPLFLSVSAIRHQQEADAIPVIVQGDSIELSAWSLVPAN

sugar beet seeds = assay: Laboratory germination of pelleted sugar beet seeds; type: in vivo; conditions: in words
Excerpt: (§1) Seeds were pelleted with standard P1 pelleting mass with (1,2) or without (7,8)Thiram.
(§2) Inner coating: 0.3 gai/U microthecin as a 0.5% solution in water or • 14.7 gai/U Hymexazol. • 60 gai/U Imidacloprid.
(§3) Standard metallic green seed cover film.

Aphanomyces = assay: Field emergence trial FEHCPO34 Aphanomyces, pelleted sugar beet seeds; type: in vivo; conditions: pellets containing the substance; in words
Excerpt: Based on these findings, the efficiency of microthecin was further investigated in a field emergence trial. The trial was sown relatively late giving it a higher chance for presence of the pathogen Aphanomyces in the trial field.
as §1, §2, §3
Trial place Bukkehave, D K. (4 reps, 200 seeds/plot)

Aphanomyces cochlioides [2] = assay: Example 4 screening for growth inhibition on agar plates; type: cell-based; conditions: very low concentrations; wells on PDA-agar plates, 3-5 days
Experimental: The effect of microthecin on the plant pathogenic fungi Pythium ultimum, Rhizoctonia solani and Aphanomyces cochlioides in vitro was investigated by screening for growth inhibition of the pathogens on agar-plates (FIGS. 6, 7, 8).
(§4) In each case, microthecin was dissolved in water and placed in wells in the periphery. An agar block containing the pathogen was placed in the centre. The pathogens were allowed to grow out on the PDA-agar plates for 3-5 days.

[3] = tested on: Bacillus (B. Pumilus DS96.734, B. megaterium DS98.124); assay: Example 4 similar tests with other microorganisms; type: cell-based
Experimental: as §4

[4] = tested on: Pseudomonads (P. fluorescens DS96.578, P. mendocina DS98.124); assay: Example 4 similar tests with other microorganisms; type: cell-based
Experimental: as §4

Rhizoctonia solani = assay: Agar plate inhibition zone test (PDA), microthecin solutions; type: cell-based; conditions: judged after 2-3 days of growth
Experimental: (§5) Basic microthecin solution: 24 mg/ml Batch no. Mic20011016
(§6) All solutions were filtered through a 0.22 μm filter for sterilisation.
(§7) A circular plug (diameter 10 mm) of fresh mycelium was placed at the centre on a petri-dish (diameter 9 cm) containing PDA medium. (PDA=Potato dextrose agar Difco no. 213400). Wells with a diameter of 5 mm were cut along the periphery of the agar plate. In each well were placed 50 μl of a test solution. Alternatively, 20 μl of each test solution were placed directly on the agar along the periphery of the plate. Also, 50 μl of each test solution were placed directly on top of the fungal mycelium plug.
(§8) The agar plates were placed at room temperature in daylight, but protected from direct sunlight.
(§9) The reaction (inhibition zones) of the fungi to the test substance was judged as follows: […]

Pythium ultimum = assay: as above; type: cell-based; conditions: judged after 1-2 days of growth
Experimental: as §5, §6, §7, §8, §9

Aphanomyces cochlioides [5] = assay: as above; type: cell-based; conditions: judged after 3-4 days of growth
Experimental: as §5, §6, §7, §8, §9

Cercospora beticola = assay: as above; type: cell-based; conditions: judged after 3-4 weeks of growth
Experimental: as §5, §6, §7, §8, §9

[6] = final substrate concentration 13.7 μg/ml reaction mixture
[7] = final substrate concentration 27.4 μg/ml reaction mixture
[8] = final substrate concentration 41.1 μg/ml reaction mixture
[9] = final substrate concentration 68.4 μg/ml reaction mixture
[10] = final substrate concentration 95.8 μg/ml reaction mixture
[11] = final substrate concentration 137 μg/ml reaction mixture
[12] = final substrate concentration 205 μg/ml reaction mixture

| Structure (SMILES) | Vmax with AF relative to glucosone ([1]; AF versus natural substrate glucosone) | OD 226 nm using substance as substrate [1, 6] | OD 226 nm using substance as substrate [1, 7] | OD 226 nm using substance as substrate [1, 8] | OD 226 nm using substance as substrate [1, 9] | OD 226 nm using substance as substrate [1, 10] | OD 226 nm using substance as substrate [1, 11] | OD 226 nm using substance as substrate [1, 12] | 4d>15mm germination (sugar beet seeds) | speed of germination in field emergence trials (Aphanomyces) | speed of laboratory germination (4d) (sugar beet seeds; inclusion in pellets) | growth of Aphanomyces (Aphanomyces cochlioides [2]) | final germination in field (Aphanomyces) | effect on the growth of Bacillus [3] | effect on Pseudomonads [4] | minimum inhibition concentration (mic) (Rhizoctonia solani) [ppm] | minimum inhibition concentration (mic) (Pythium ultimum) [ppm] | minimum inhibition concentration (mic) (Aphanomyces cochlioides [5]) [ppm] | minimum inhibition concentration (mic) (Cercospora beticola) [ppm] |
| --- | --- | --- | --- | --- | --- | --- | --- | --- | --- | --- | --- | --- | --- | --- | --- | --- | --- | --- | --- |
| O=C1CO[C@H](CO)[C@@H](O)[C@@H]1O [AF, 1,5-anhydro-D-fructose] | around 4.7 times | 0.308 | 0.534 | 0.76 | 1.246 | 1.764 | 2.43 | 2.943 |  |  |  |  |  |  |  |  |  |  |  |
| O=CC(=O)[C@@H](O)[C@H](O)[C@H](O)CO [Glucosone, D-arabino-hexos-2-ulose] |  | 0.069 | 0.104 | 0.141 | 0.238 | 0.323 | 0.484 | 0.634 |  |  |  |  |  |  |  |  |  |  |  |
| Cc1cc(O)no1 [Hymexazol] |  |  |  |  |  |  |  |  | low 4d>15mm germination | germinate relatively slow |  |  |  |  |  |  |  |  |  |
| O=C1C=CCOC1(O)CO (stereo not drawn) [microthecin] |  |  |  |  |  |  |  |  |  | comparable with pellets only containing Thiram | decreases the speed of laboratory germination | able to reduce the growth | high final germination | no effect | slightly affected | 240 | 480 | 1200 | 2400 |
